Results on 30 compounds are retold here after patent US9902702B2, “Spirocycloheptanes as inhibitors of rock” (BRISTOL-MYERS SQUIBB COMPANY, priority 2014, dated 2018).

A word on the IC50: it is the concentration needed to halve the response being measured.

This assay addresses ROCK2 (Homo sapiens, UniProt O75116). Description: ROCK assay: phosphorylation of FITC peptide substrate, LABCHIP 3000 mobility shift. The class given is biochemical. The note with it: 5 μM ATP, 1.5 μM peptide substrate; read-out: ROCK2 Activity (ROCK IC50 range). The essentials:
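IC50 values come from curve-fitting percent kinase inhibition across a compound dilution series. The reaction is started with Rho kinase variant in HEPES pH 7.5 buffer with MgCl2, Brij-35 and DTT, with 5 μM ATP, 1.5 μM FITC-labelled peptide and under 2% DMSO. After EDTA quench, product and substrate are separated by microfluidic mobility shift.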

Sequence of ROCK2 (O75116 whole entry, species assumed): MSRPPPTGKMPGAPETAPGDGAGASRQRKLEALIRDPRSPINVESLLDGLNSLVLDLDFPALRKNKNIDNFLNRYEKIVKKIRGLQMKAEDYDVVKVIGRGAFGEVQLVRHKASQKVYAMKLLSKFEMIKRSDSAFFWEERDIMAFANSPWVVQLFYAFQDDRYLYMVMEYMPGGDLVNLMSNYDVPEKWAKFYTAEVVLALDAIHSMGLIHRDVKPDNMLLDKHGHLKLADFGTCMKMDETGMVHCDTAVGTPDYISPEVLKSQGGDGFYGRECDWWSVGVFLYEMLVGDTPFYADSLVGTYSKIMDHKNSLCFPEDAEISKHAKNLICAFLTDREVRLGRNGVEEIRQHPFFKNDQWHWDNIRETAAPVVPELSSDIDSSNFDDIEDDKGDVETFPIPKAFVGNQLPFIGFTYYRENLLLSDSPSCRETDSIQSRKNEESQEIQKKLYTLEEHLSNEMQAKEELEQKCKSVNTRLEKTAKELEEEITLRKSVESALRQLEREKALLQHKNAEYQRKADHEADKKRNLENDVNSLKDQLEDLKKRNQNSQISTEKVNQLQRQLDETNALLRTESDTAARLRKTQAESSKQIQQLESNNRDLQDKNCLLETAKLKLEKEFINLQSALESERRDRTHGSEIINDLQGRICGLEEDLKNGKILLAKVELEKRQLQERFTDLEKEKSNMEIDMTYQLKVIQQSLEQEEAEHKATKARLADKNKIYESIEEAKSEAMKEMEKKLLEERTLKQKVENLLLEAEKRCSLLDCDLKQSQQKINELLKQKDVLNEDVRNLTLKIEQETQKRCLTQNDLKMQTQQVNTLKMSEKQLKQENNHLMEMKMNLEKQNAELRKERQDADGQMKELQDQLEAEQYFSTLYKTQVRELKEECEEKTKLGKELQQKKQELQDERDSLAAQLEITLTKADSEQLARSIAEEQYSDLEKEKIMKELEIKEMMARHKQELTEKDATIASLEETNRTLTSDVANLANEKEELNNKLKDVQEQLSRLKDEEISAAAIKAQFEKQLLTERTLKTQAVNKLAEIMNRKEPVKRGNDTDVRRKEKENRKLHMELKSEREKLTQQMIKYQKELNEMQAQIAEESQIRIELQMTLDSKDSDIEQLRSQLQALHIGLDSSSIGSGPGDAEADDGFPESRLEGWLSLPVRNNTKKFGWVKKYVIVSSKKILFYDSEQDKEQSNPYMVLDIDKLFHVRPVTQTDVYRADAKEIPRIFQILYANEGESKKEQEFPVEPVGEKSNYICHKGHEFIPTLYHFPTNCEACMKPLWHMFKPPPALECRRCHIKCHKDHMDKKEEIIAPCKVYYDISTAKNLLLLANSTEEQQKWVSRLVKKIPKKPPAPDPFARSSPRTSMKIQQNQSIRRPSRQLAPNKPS

On to `[H][C@]1(c2n[nH]c(=O)c3ccccc32)C[C@]2(C[C@@H](NC(=O)c3ccc4[nH]cnc4c3)C2)C1` (stereo partly drawn) [Example 308, N-((aR)-6-(4-oxo-3,4-dihydrophthalazin-1-yl)spiro[3.3]heptan-2-yl)-1H-benzo[d] imidazole-5-carboxamide], for which the IC50 lay in the range of 5.1 to 15 nM.

With `[H][C@]1(c2n[nH]c(=O)c3ccccc32)C[C@]2(C[C@@H](NC(=O)c3ccc4[nH]c(C)nc4c3)C2)C1` (stereo partly drawn) [Example 309, 2-methyl-N-((aR)-6-(4-oxo-3,4-dihydrophthalazin-1-yl)spiro[3.3]heptan-2-yl)-1H-benzo[d] imidazole-5-carboxamide], the concentration for half-maximal inhibition (IC50) lay in the range of 15.1 to 100 nM.

As for `O=C(NC1CC2(C1)CC(c1n[nH]c(=O)c3ccccc13)C2)c1cnc2[nH]cnc2c1` [Example 310, N-((aR)-6-(4-oxo-3,4-dihydrophthalazin-1-yl)spiro[3.3]heptan-2-yl)-3H-imidazo[4,5-b]pyridine-6-carboxamide], the IC50 lay in the range of 15.1 to 100 nM.

For the compound `[H][C@]1(c2n[nH]c(=O)c3ccccc32)C[C@]2(C[C@@H](NC(=O)c3ccc(NC=O)c(O)c3)C2)C1` (stereo partly drawn) [Example 311, 4-formamido-3-hydroxy-N-((aR)-6-(4-oxo-3,4-dihydrophthalazin-1-yl)spiro[3.3]heptan-2-yl)benzamide], the IC50 was in the range of 5.1 to 15 nM.

In the case of `[H][C@]1(c2n[nH]c(=O)c3ccccc32)C[C@]2(C[C@@H](NC(=O)c3cc4cccnc4[nH]3)C2)C1` (stereo partly drawn) [Example 312, N-((aR)-6-(4-oxo-3,4-dihydrophthalazin-1-yl)spiro[3.3]heptan-2-yl)-1H-pyrrolo[2,3-b]pyridine-2-carboxamide], the IC50 was 5.1 to 15 nM.

As for `[H][C@]1(c2n[nH]c(=O)c3ccccc32)C[C@]2(C[C@@H](NC(=O)c3cc4ccc(Cl)cc4s3)C2)C1` (stereo partly drawn) [Example 313, 6-chloro-N-((aR)-6-(4-oxo-3,4-dihydrophthalazin-1-yl)spiro[3.3]heptan-2-yl)benzo[b] thiophene-2-carboxamide], the IC50 is 5.1 to 15 nM.

On to `[H][C@]1(c2n[nH]c(=O)c3ccccc32)C[C@]2(C[C@@H](NC(=O)c3cc4ccc(OC)cc4n3C)C2)C1` (stereo partly drawn) [Example 314, 6-methoxy-1-methyl-N-((aR)-6-(4-oxo-3,4-dihydrophthalazin-1-yl)spiro[3.3]heptan-2-yl)-1H-indole-2-carboxamide], for which the IC50 was in the range of 5.1 to 15 nM.

`[H][C@]1(c2n[nH]c(=O)c3ccccc32)C[C@]2(C[C@@H](NC(=O)c3ccc4nc(C)oc4c3)C2)C1` (stereo partly drawn) [Example 315, 2-methyl-N-((aR)-6-(4-oxo-3,4-dihydrophthalazin-1-yl)spiro[3.3]heptan-2-yl)benzo[d] oxazole-6-carboxamide]: the IC50 is 15.1 to 100 nM.

Regarding `[H][C@]1(c2n[nH]c(=O)c3ccccc32)C[C@]2(C[C@@H](NC(=O)c3ccc4cn[nH]c4c3)C2)C1` (stereo partly drawn) [Example 316, N-((aR)-6-(4-oxo-3,4-dihydrophthalazin-1-yl)spiro[3.3]heptan-2-yl)-1H-indazole-6-carboxamide], the IC50 fell in the range of 5.1 to 15 nM.

For the compound `[H][C@]1(c2n[nH]c(=O)c3ccccc32)C[C@]2(C[C@@H](NC(=O)c3ccc4c(c3)ncn4C)C2)C1` (stereo partly drawn) [Example 317, 1-methyl-N-((aR)-6-(4-oxo-3,4-dihydrophthalazin-1-yl)spiro[3.3]heptan-2-yl)-1H-benzo[d] imidazole-5-carboxamide], the IC50 lay within 5.1 to 15 nM.

As to `[H][C@]1(c2n[nH]c(=O)c3ccccc32)C[C@]2(C[C@@H](NC(=O)c3cnc4ccccn34)C2)C1` (stereo partly drawn) [Example 318, N-((aR)-6-(4-oxo-3,4-dihydrophthalazin-1-yl)spiro[3.3]heptan-2-yl)imidazo[1,2-a]pyridine-3-carboxamide], the IC50 is 5.1 to 15 nM.

As for `[H][C@]1(c2n[nH]c(=O)c3ccccc32)C[C@]2(C[C@@H](NC(=O)c3cc4cc(OCc5ccccc5)ccc4[nH]3)C2)C1` (stereo partly drawn) [Example 319, 5-(benzyloxy)-N-((aR)-6-(4-oxo-3,4-dihydrophthalazin-1-yl)spiro[3.3]heptan-2-yl)-1H-indole-2-carboxamide], the IC50 is 15.1 to 100 nM.

Take `[H][C@]1(c2n[nH]c(=O)c3ccccc32)C[C@]2(C[C@@H](NC(=O)c3cc4ccc(F)cc4[nH]3)C2)C1` (stereo partly drawn) [Example 320, 6-fluoro-N-((aR)-6-(4-oxo-3,4-dihydrophthalazin-1-yl)spiro[3.3]heptan-2-yl)-1H-indole-2-carboxamide]: the half-maximal inhibitory concentration (IC50) fell in the range of 5.1 to 15 nM.

As for `[H][C@]1(c2n[nH]c(=O)c3ccccc32)C[C@]2(C[C@@H](NC(=O)C3CCc4ccccc43)C2)C1` (stereo partly drawn) [Example 321, N-((aR)-6-(4-oxo-3,4-dihydrophthalazin-1-yl)spiro[3.3]heptan-2-yl)-2,3-dihydro-1H-indene-1-carboxamide], the IC50 fell in the range of 100 to 2100 nM.

With `[H][C@]1(c2n[nH]c(=O)c3ccccc32)C[C@]2(C[C@@H](NC(=O)c3cc4cccc(C)c4[nH]3)C2)C1` (stereo partly drawn) [Example 322, 7-methyl-N-((aR)-6-(4-oxo-3,4-dihydrophthalazin-1-yl)spiro[3.3]heptan-2-yl)-1H-indole-2-carboxamide], the concentration for half-maximal inhibition (IC50) lay in the range of 2.01 to 5 nM.

Take `[H][C@]1(c2n[nH]c(=O)c3ccccc32)C[C@]2(C[C@@H](NC(=O)C3NCc4ccccc43)C2)C1` (stereo partly drawn) [Example 323, N-((aR)-6-(4-oxo-3,4-dihydrophthalazin-1-yl)spiro[3.3]heptan-2-yl)isoindoline-1-carboxamide]: the half-inhibitory concentration (IC50) lay in the range of 100 to 2100 nM.

In the case of `O=C(N[C@H]1CC2(C1)C[C@H](c1n[nH]c(=O)c3ccccc31)C2)c1cc2ccccn2n1` (stereo partly drawn) [Example 325, N-((aR)-6-(4-oxo-3,4-dihydrophthalazin-1-yl)spiro[3.3]heptan-2-yl)pyrazolo[1,5-a]pyridine-2-carboxamide], the half-inhibitory concentration (IC50) is 5.1 to 15 nM.

Turning to `[H][C@]1(c2n[nH]c(=O)c3ccccc32)C[C@]2(C[C@@H](NC(=O)c3cc4ccccc4cn3)C2)C1` (stereo partly drawn) [Example 326, N-((aR)-6-(4-oxo-3,4-dihydrophthalazin-1-yl)spiro[3.3]heptan-2-yl)isoquinoline-3-carboxamide], the IC50 lay in the range of 2.01 to 5 nM.

Take `[H][C@]1(c2n[nH]c(=O)c3ccccc32)C[C@]2(C[C@@H](NC(=O)c3cc4cccc(O)c4[nH]3)C2)C1` (stereo partly drawn) [Example 327, 7-hydroxy-N-((aR)-6-(4-oxo-3,4-dihydrophthalazin-1-yl)spiro[3.3]heptan-2-yl)-1H-indole-2-carboxamide]: the IC50 was in the range of 2.01 to 5 nM.

As for `[H][C@]1(c2n[nH]c(=O)c3ccccc32)C[C@]2(C[C@@H](NC(=O)c3cc4cccc(Cl)c4[nH]3)C2)C1` (stereo partly drawn) [Example 328, 7-chloro-N-((aR)-6-(4-oxo-3,4-dihydrophthalazin-1-yl)spiro[3.3]heptan-2-yl)-1H-indole-2-carboxamide], the IC50 was in the range of 2.01 to 5 nM.

For the compound `[H][C@]1(c2n[nH]c(=O)c3ccccc32)C[C@]2(C[C@@H](NC(=O)c3cc4ccc(F)c(C)c4[nH]3)C2)C1` (stereo partly drawn) [Example 329, 6-fluoro-7-methyl-N-((aR)-6-(4-oxo-3,4-dihydrophthalazin-1-yl)spiro[3.3]heptan-2-yl)-1H-indole-2-carboxamide], the IC50 was 0.2 to 2 nM.

Regarding `[H][C@]1(c2n[nH]c(=O)c3ccccc32)C[C@]2(C[C@@H](NC(=O)c3ccc4ccccc4n3)C2)C1` (stereo partly drawn) [Example 330, N-((aR)-6-(4-oxo-3,4-dihydrophthalazin-1-yl)spiro[3.3]heptan-2-yl)quinoline-2-carboxamide], the half-inhibitory concentration (IC50) lay in the range of 15.1 to 100 nM.

As for `[H][C@]1(c2n[nH]c(=O)c3ccccc32)C[C@]2(C[C@@H](NC(=O)c3ccc(Br)cc3)C2)C1` (stereo partly drawn) [Example 331, 4-bromo-N-((aR)-6-(4-oxo-3,4-dihydrophthalazin-1-yl)spiro[3.3]heptan-2-yl)benzamide], the IC50 lay in the range of 5.1 to 15 nM.

Regarding `[H][C@]1(c2n[nH]c(=O)c3ccccc32)C[C@]2(C[C@@H](NC(=O)c3cc4cccc(C(F)(F)F)c4[nH]3)C2)C1` (stereo partly drawn) [Example 332, N-((aR)-6-(4-oxo-3,4-dihydrophthalazin-1-yl)spiro[3.3]heptan-2-yl)-7-(trifluoromethyl)-1H-indole-2-carboxamide], the IC50 lay within 0.2 to 2 nM.

`[H][C@]1(c2n[nH]c(=O)c3ccccc32)C[C@]2(C[C@@H](NC(=O)c3cc4cccc(F)c4[nH]3)C2)C1` (stereo partly drawn) [Example 333, 7-fluoro-N-((aR)-6-(4-oxo-3,4-dihydrophthalazin-1-yl)spiro[3.3]heptan-2-yl)-1H-indole-2-carboxamide]: the IC50 is 5.1 to 15 nM.

On to `[H][C@]1(c2n[nH]c(=O)c3ccccc32)C[C@]2(C[C@@H](NC(=O)c3cc4c(OC)ccc(OC)c4[nH]3)C2)C1` (stereo partly drawn) [Example 334, 4,7-dimethoxy-N-((aR)-6-(4-oxo-3,4-dihydrophthalazin-1-yl)spiro[3.3]heptan-2-yl)-1H-indole-2-carboxamide], for which the concentration for half-maximal inhibition (IC50) was 5.1 to 15 nM.

Take `[H][C@]1(c2n[nH]c(=O)c3ccccc32)C[C@]2(C[C@@H](NC(=O)c3cc4cc(F)cc(S(C)(=O)=O)c4[nH]3)C2)C1` (stereo partly drawn) [Example 335, 5-fluoro-7-(methylsulfonyl)-N-((aR)-6-(4-oxo-3,4-dihydrophthalazin-1-yl)spiro[3.3]heptan-2-yl)-1H-indole-2-carboxamide]: the half-maximal inhibitory concentration (IC50) was 2.01 to 5 nM.

In the case of `[H][C@]1(c2n[nH]c(=O)c3ccccc32)C[C@]2(C[C@@H](NC(=O)c3cccc(-n4cccn4)c3)C2)C1` (stereo partly drawn) [Example 336, N-((aR)-6-(4-oxo-3,4-dihydrophthalazin-1-yl)spiro[3.3]heptan-2-yl)-3-(1H-pyrazol-1-yl)benzamide], the concentration for half-maximal inhibition (IC50) was in the range of 15.1 to 100 nM.

In the case of `[H][C@]1(c2n[nH]c(=O)c3ccccc32)C[C@]2(C[C@@H](NC(=O)c3ccc(-c4cn[nH]c4)cc3)C2)C1` (stereo partly drawn) [Example 337, N-((aR)-6-(4-oxo-3,4-dihydrophthalazin-1-yl)spiro[3.3]heptan-2-yl)-4-(1H-pyrazol-4-yl)benzamide], the IC50 is 5.1 to 15 nM.

Regarding `[H][C@]1(c2n[nH]c(=O)c3ccccc32)C[C@]2(C[C@@H](NC(=O)c3cccc(OCCN4CCOCC4)c3)C2)C1` (stereo partly drawn) [Example 338, 3-(2-morpholino-ethoxy)-N-((aR)-6-(4-oxo-3,4-dihydrophthalazin-1-yl)spiro[3.3]heptan-2-yl)benzamide], the IC50 lay within 15.1 to 100 nM.
